Test results from US20190167771A1, “CONTROL ANGIOGENESIS BY REGULATING PHOSPHORYLATION OF SERYL-tRNA SYNTHETASE (SerRS)” (The Scripps Research Institute, priority 2016, published 2019).

Assays:
SerRS phosphorylation = assay: Hypoxia-induced phosphorylation of endogenous SerRS in HEK293 cells with ATM/ATR inhibitors (IP/IB); assay type: cell-based, human; settings: HEK293 pretreated with inhibitor for one hour, hypoxia 12 hours
Procedure: In FIG. 7C, HEK293 cells were pretreated with specific ATM inhibitor KU-55933 and ATR inhibitor VE-821 for one hour and then cultured under hypoxia condition for 12 hours. Cell lysates were subjected to IP with anti-SerRS antibody followed by immunoblot (IB) with anti-P-SQ antibody for detecting phosphorylated SerRS (P-SerRS). Phosphorylation of known ATM/ATR substrates (Chk1 and Chk2) was also immunoblotted.
Cells were resuspended with lysis buffer (20 mM Tris-HCl (pH 7.5), 150 mM NaCl, 1 mM of EDTA, 1 mM EGTA, 1% Triton X-100, 2.5 mM sodium pyrophosphate, 1 mM beta-glycerophosphate, 1 mM Na3VO4, and protease inhibitor cocktail) on ice. Supernatants were incubated with indicated antibodies and protein-G-conjugated agarose beads (ThermoFisher Scientific) for at least 2 h. The beads were washed five times with wash buffer (same as the lysis buffer, except that Triton X-100 was reduced from 1% to 0.1%) and then subjected to SDS-PAGE and immunoblotting analysis with indicated antibodies.

VEGFA [1] = assay: VEGFA mRNA induction by 12-hour hypoxia in HEK293 cells (qRT-PCR); assay type: cell-based, human; settings: inhibitor 5 μM pretreatment, hypoxia 12 hours
Procedure: In FIG. 3B, HEK293 cells were transiently transfected with SerRS^WT or SerRS^S101A/S241A constructs or empty control vector. 24 hours post-transfection, VEGFA mRNA induction by 12-hour-hypoxia treatment was monitored by qRT-PCR (means±SEM from four independent experiments; *P<0.05, **P<0.01, ***P<0.005). In FIG. 3C, HEK293 cells were transiently transfected with indicated constructs. 36 hours post-transfection, VEGFA mRNA induction by 12-hour-hypoxia treatment was monitored by qRT-PCR (means±SEM from four independent experiments; *P<0.0, **P<0.001, ***P<0.0001). The protein levels of SerRS, HIF-1α, and β-actin were examined by western blot (bottom).
Transient transfections were performed using Lipofectamine 2000 (ThermoFisher Scientific).
One gram of the total RNA from each sample was reversely transcribed to cDNA by M-MLV reverse transcriptase (Promega, Madison, Wis., USA). All real-time PCR reactions were performed using the StepOnePlus Real-Time PCR system (ThermoFisher Scientific) with SYBR Select Master Mix ThermoFisher Scientific). […] The PCR reaction program started at 95° C. for 10 min, followed by 45 cycles of 95° C. for 20 seconds and 60° C. for 1 min. Each experiment was carried out in triplicate. The VEGFA gene expression was normalized to that of β-ACTIN. Statistical analyses were performed with the software SigmaPlot (version 10.0). Student's t-test was used to analyze the changes between different groups.

Vegfa [2] = assay: Vegfa mRNA by qRT-PCR in zebrafish embryos with SerRS knockdown and mRNA co-injection; assay type: in vivo; settings: morpholino injected into 1-cell stage embryos, 3 dpf
Procedure: (§1) In FIG. 2A, wild type SerRS (SerRS^WT), its mutants with double substitutions of serine 101 and 241 with alanine or aspartic acid residues (SerRS^S101A/S241A and SerRS^S101D/S241D), or empty vector were transfected into HEK293 cells. The expression levels of SerRS proteins was measured by immunoblot (bottom) and VEGFA expression was determined by qRT-PCR (means±SEM from three independent experiments; ***P<0.0001). In FIGS. 2B-D, the roles of SerRS^S101A/S241A and SerRS^S101D/S241D in regulating vascular development in vivo in zebrafish were examined by co-injection of SerRS^S101A/S241A and SerRS^S101D/S241D mRNAs into one-cell-stage embryos whose endogenous SerRS was knocked down by injection of antisense morpholino (SerRS-MO) that led to abnormal high expression of Vegfa and hypervascularization (shown by short bold arrows in FIG. 2C). At 3 day post fertilization (dpf), embryos were harvested and Vegfa expression levels were measured by qRT-PCR (means±SEM, n=125-211; *P<0.01, **P<0.001) (B). The development of intersegmental vessel (ISV) at 3 dpf was examined (C) and the statistics of ISV abnormal branching rescued by SerRS^WT or mutant SerRS mRNA injections was analyzed (D; χ^2-test,* P>0.05 vs SerRS^WT, **P>0.1 vs SerRS-MO, ***P<1×10^−28 vs control-MO). In FIG. 2E, the binding affinities of SerRS^WT or SerRS^S101D/S241D with ^32P labeled DNA fragments corresponding to SerRS binding site on human VEGFA promoter were examined by EMSA. In FIG. 2F, the binding of SerRS^WT, SerRS^S101A/S241A, or SerRS^S101D/S241D on VEGFA promoter in HEK293 cells was examined by chromatin immunoprecipitation (ChIP) and qPCR (means±SEM from two independent experiments; ***P<0.0001). In FIG. 2G, the binding of endogenous SerRS on VEGFA promoter during hypoxia course was monitored by ChIP (means±SEM from three independent experiments; *P<0.05, **P<0.005 vs normal).
Total RNA was isolated from cells and zebrafish embryos by TRIzol Reagent (ThermoFisher Scientific). […] of the total RNA from each sample was reversely transcribed to cDNA by M-MLV reverse transcriptase (Promega, Madison, Wis., USA). All real-time PCR reactions were performed using the StepOnePlus Real-Time PCR system (ThermoFisher Scientific) with SYBR Select Master Mix ThermoFisher Scientific). […]

zebrafish embryos = assay: Intersegmental vessel (ISV) branching in zebrafish embryos; assay type: in vivo; settings: SerRS-MO alone, 3 dpf
Procedure: as §1
Transgenic Tg (Fli1a: EGFP) fish were maintained as we described before (Ref). The fish embryos were kept at 28.5° C. before and after microinjection. The antisense morpholino (MOs) targeting SerRS was injected into the yolk of 1-cell stage embryos at the dosage of 4˜5 ng per embryo. The sequence of SerRS-MO is (Ref). The SerRS-MO (5′ AGGAGAATGTGAACAAACCTGACAC 3′ (SEQ ID NO: 34)) and standard control MO (5′ CCTCTTACCTCAGTTACAATTTATA 3′ (SEQ ID NO: 35)) were purchased from Gene Tools, LLC (Philomath, Oreg. USA). After injection, embryos were incubated in E3 embryo medium supplemented with 0.003% 1-phenyl-2-thiourea (PTU) at 28.5° C. to prevent pigment formation. […] The rescue effects of different SerRS mutants on ISV development were analyzed with χ^2 test. […]

ATM/ATR kinases = assay: In vitro phosphorylation of recombinant SerRS by DNA-activated HEK293 nuclear extract (p-SQ immunoblot, 32P-labelling); assay type: biochemical, human; settings: recombinant his6-tagged protein, p-SQ antibody and 32P-labelling
Procedure: FIGS. 1A-G show SerRS is important for hypoxia induced VEGFA expression and is phosphorylated by ATM and ATR kinases under hypoxia at serine 101 and serine 241 residues. In FIG. 1A, HEK293 cells were transfected with shRNAs targeting SerRS (sh-SerRS) or GlyRS (sh-GlyRS), or nonspecific control shRNA (sh-Control). 48 hours post-transfection, cells were cultured under hypoxia or normoxia conditions for 12 hours. Immunoblot of cell lysates with anti-SerRS, anti-GlyRS and anti-β-actin antibodies (left). VEGFA expression levels were measured by qRT-PCR (right) and relative induction of VEGFA transcription under hypoxia were plotted (right, inset) (means±SEM. from four independent experiments; *P<0.01, **P<0.0001). […] The conserved ATM/ATR substrate motif residues are underlined. In FIG. 1C, recombinant his6-tagged human SerRS or GlyRS were incubated with γ-^32P-ATP and HEK293 cell nuclear extracts which are treated with or without double-stranded DNA oligoes mimicking DNA damage stimuli to activate ATM/ATR/DNA-PK kinases. Recombinant proteins were then purified by Ni-NTA beads and subjected to SDS-PAGE and autoradiography. In FIG. 1D, recombinant his6-tagged two human aminoacyl tRNA synthetases (AARS): TyrRS and GlyRS, wild type SerRS, or SerRS mutants with single or double substitutions of serine 101 and serine 241 with alanine (S101A, S241A, and S101A/S241A) were treated as described in FIG. 1C and phosphorylated recombinant proteins were immunoblotted with antibodies as indicated after purification by Ni-NTA beads. In FIG. 1E, HEK293 cells were cultured under hypoxia for 3, 6, and 12 hours. Phosphorylated SerRS was immunoblotted with specific anti-p-SQ antibody after SerRS proteins were immunoprecipitated (IP). Cell lysates were immunoblotted with indicated antibodies for known ATM and ATR substrates (Chk1 and P53). In FIG. 1F, Flag-tagged wild type and mutant SerRS constructs were transfected into HEK293 cells. 24 hours post-transfection, cells were treated with hypoxia stress for 12 hours and ectopically expressed SerRS was then purified by immunoprecipitation (IP) using anti-Flag antibody and immunoblot (IB) with anti-P-SQ antibody and anti-Flag antibody. In FIG. 1G, HEK293 cells were transfected with siRNA against ATM (si-ATM) or ATR (si-ATR) and treated with hypoxia stress for 12 hours. Phosphorylated SerRS were immunoblotted as described in FIG. 1E. […]
For protein purification, human SerRS and its mutant genes were subeloned into pET-20b(+) plasmid (Novagen, Darmstadt, Germany) and overexpressed in E. coli. […] The purities of the recombinant proteins were assessed by Coomassie blue staining following 4-12% Mini Gel (ThermoFisher Scientific) electrophoresis. Protein concentrations were determined using Bradford protein assay (BioRad, Hercules, Calif., USA). […]

Compound	SerRS phosphorylation under hypoxia (SerRS phosphorylation)	VEGFA induction under hypoxia (VEGFA [1])	level of phosphorylation in vitro (ATM/ATR kinases)	further results
O=c1cc(-c2cccc3c2Sc2ccccc2S3)oc(N2CCOCC2)c1 [KU-55933, reference compound]	blocked	less but still statistically significant		
CS(=O)(=O)c1ccc(-c2cnc(N)c(C(=O)Nc3ccccc3)n2)cc1 [VE-821, reference compound]	blocked	dramatically inhibited VEGFA induction		
SerRS-MO: antisense morpholino targeting zebrafish SerRS, SEQ ID NO: 34 (antisense AGGAGAATGTGAACAAACCTGACAC; all phosphorodiamidate morpholino (PMO)) [reference compound]				increase in the mRNA level of Vegfa (Vegfa [2]): 4 fold; zebrafish embryos with abnormal hyper-ISV branching phenotype (zebrafish embryos): 69.7%
SerRS^S101A: human SerRS mutant, serine 101 substituted with alanine, SEQ ID NO: 2			decreased level of phosphorylation	
SerRS^S241A: human SerRS mutant, serine 241 substituted with alanine, SEQ ID NO: 3			almost had no phosphorylation	
